These results are taken from patent US20220050096A1, “ANALYTE-SENSITIVE PROBES AND CONTACT LENS FOR DIAGNOSIS OF OCULAR PATHOLOGIES” (University Of Maryland, Baltimore, priority 2020, published 2022).

Molecules are shown by their SMILES. Where two headings read alike, the source gives them in different places.

For data set [1] the following is noted: cited from earlier work; for Lifetime (ns), Ca bound form / Q, Ca bound form: bound form (in parentheses).
For data set [2] the following is noted: cited from earlier work.
The conditions of data set [3]: cited from earlier work. The source holds these as a separate data set.
Data set [4] is described as follows: Intensity decay of Prodan in various solvents and contact lenses. It is filed as physicochemical. As to the method: Fluorescence Spectroscopic Measurements. Fluorescence intensities and intensity decays were measured using a Varian™ Eclipse 4 spectrofluorometer and a FluoTime300 instrument from PicoQuant™ (Berlin, Germany) and analyzed with the EasyTau™ software. The excitation source was a 473 nm laser diode with a repetition rate of 40 MHZ and a pulse width less than 100 ps. In other embodiments, the excitation source for SG-PL was at 495 nm from a Solea™ supercontinuum laser (PicoQuant™, Germany) and a 375 nm laser diode (PDL 375, PicoQuant™), a repetition rate of 40 MHz, and a pulse width less than 100 ps. Some intensity and lifetime measurements for SG-PL (as indicated) were performed using Alba V confocal fluorescence lifetime microscopy, FLIM (ISS, Urbana, Ill.), with excitation source of a 473 nm laser diode with a repetition rate of 40 MHz and a pulse width near 250 ps.
Intensity decays were measured at the emission maximum with the band of 10 to 20 nm, analyzed in terms of the multi-exponential model:
I(t)=Σαi exp(−t/ti) (equation 1)
where Σαi=1.0 and Σfi=1.0. The term fi=αi τi is proportional to the fractional contribution of each component to the total intensity decay. The term τi/Σαi τi is the fractional contribution to the steady state emission. Here, we use the amplitude-weighted lifetime given by
The observed spectral properties of 1,8-ANS in lens are consistent with 1,8-ANS properties noticed in a non-polar environment. The probe 6-propionyl-2-dimethylaminonaphthalene (Prodan™), which is also highly sensitive to local polarity, also was used. […] In MyDay™ lenses the emission maximum is at a shorter wavelength than that in acetonitrile.

The conditions of data set [5]: cited from earlier work. This is another data set of the same source.
Data set [6] in a line: Chloride quenching (Stern-Volmer) of SPQ-C3 in water. Format: physicochemical. As to the method:
Quenching by Chloride. Collisional quenching occurs, for example, when SPQ-C18 (also referred to as OD-MQB (N-Octadecyl-6-methoxyquinolinium bromide)) has a diffusion collision with a chloride ion. The intensities (I) and lifetimes (6) are analyzed using the Stern-Volmer equation,
where F0 and τ0 are the intensities and lifetimes in the absence of chloride, and K is the quenching constant and the inverse of the [Cl^−] needed for 50% quenching. For collisional quenching, the value of F0/F and τ0/τ are typically the same. In solution, in the absence of lenses, the value of K=kq τ0 can be used to calculate the biomolecular quenching constant kq and the quenching efficiency. In the lenses, the [Cl−] may not be the same as in the bulk solution, but kq in the lenses is estimated by assuming the same concentration of chloride around the SPQ moiety in the lenses and in bulk solutions.
This approach for SPQ-C18 in lenses is shown in both intensities and amplitude-weighted lifetimes (FIG. 35A and FIG. 35B). […] This behavior is different from SG-PL where the binding site can be saturated at high Na^+ concentrations. In contrast, quenching of OD-MQB, both intensity and lifetime, continue to decrease as the chloride concentration increased. The steady-state intensities and intensity decays can be used to calculate the bimolecular quenching constant kq. This value can be interpreted by comparison with quenching of a fluorophore in solution without any steric barriers. For this measurement the water-soluble fluorophore 1-propenyl-6-methoxyquinolinium bromide (SPQ-C3) was used. This is the same structure of SPQ-C18 but with a shorter, three carbon propenyl chain. The unquenched lifetime (τ0) of P-MQB was 26 ns, and the Stern-Volmer constant K was 140 M^−1. From these values, we calculated the kq of 5.4×10^9 M^−1 sec^−1 which is a typical value for efficient quenching.
Emission spectra and time-dependent decays were obtained (data not shown). Stern-Volmer plots were obtained in water and in a Stenfilcon A (Aspire™) contact lens by plotting the normalized intensities with respect to the added chloride concentrations.

Where [7] appears, read: cation-bound form (in parentheses).

Regarding `Cc1ccc(N(CC(=O)O)CC(=O)O)c(OCCOc2cc3cc(-c4ncc(C(=O)O)o4)oc3cc2N(CC(=O)O)CC(=O)O)c1` [F ? -2], in data set [1], the “Lifetime (ns), Ca bound form” value is listed as 1.68 ns; the “Q, Ca bound form” value is 0.49; the “Lifetime (ns), Ca free form” value is given as 1.09 ns; the “Q, Ca free form” value is 0.23.

Regarding `O=S(=O)(O)c1cc(O)c2ccc3c(S(=O)(=O)O)cc(S(=O)(=O)O)c4ccc1c2c34` [HPTS, 8-hydroxypyrene-1,3,6-trisulfonate], the pKA in data set [2] was 7.3.

Regarding `Cc1ccc(N(CC(=O)O)CC(=O)O)c(OCCOc2cc(-c3cc4ccc(C(=O)O)cc4[nH]3)ccc2N(CC(=O)O)CC(=O)O)c1` [Indo-1], in data set [1], the “Lifetime (ns), Ca bound form” value is listed as 1.66 ns; the “Q, Ca bound form” value is reported as 0.50; the “Lifetime (ns), Ca free form” value is given as 1.40 ns; the “Q, Ca free form” value was 0.38.

As for `O=C(O)c1ccccc1-c1c2cc(F)c(=O)cc-2oc2cc(O)c(F)cc12` [Oregon-Green], in data set [2] (A form (value in parentheses)), the “Lifetime (ns) τA” value is 2.47 ns and the QA was 0.22. For the same compound, in data set [2] (B form), the “Lifetime (ns) τB” value is listed as 4.37 ns and the QB was 0.65. Besides, in data set [2], the pKA is 1.8.

`COc1cc2cc(-c3ccc(C(=O)O)cc3C(=O)O)oc2cc1N1CCOCCOCCN(c2cc3oc(-c4ccc(C(=O)O)cc4C(=O)O)cc3cc2OC)CCOCCOCC1` [PBF ?]: in data set [3] (setting [7]), the “Lifetime (ns), cation-bound form” value was 0.72 ns and the “Q, cation-bound form” value is listed as 0.72. Moreover, in data set [3] (free form), the “Lifetime (ns), free form” value was 0.47 ns and the “Q, free form” value is 0.24.

Regarding `Cc1ccc(N(CC(=O)O)CC(=O)O)c(OCCOc2cc(-c3c4cc(Cl)c(=O)cc-4oc4cc(O)c(Cl)cc34)ccc2N(CC(=O)O)CC(=O)O)c1` [Pluo-3], in data set [1], the “Lifetime (ns), Ca bound form” value is listed as 1.28 ns and the “Lifetime (ns), Ca free form” value is listed as 0.04 ns.

In data set [4] (in 1-hexanol), `CCC(=O)c1ccc2cc(N(C)C)ccc2c1` [Prodan ™] came in with a f1 of 1.0, a α1 of 1.0, a τ1 of 3.40 ns and a τf of 3.40 ns. In data set [4] (in 1-hexanol), this compound gave a τα of 3.40 ns. In data set [4] (in Acetonitrile), this compound gave a f1 of 1.0, a α1 of 1.0, a τ1 of 3.38 ns and a τf of 3.38 ns. In data set [4] (in Acetonitrile), this compound had a τα of 3.38 ns. In data set [4] (in Biofinity contact lens), this compound yielded a f1 of 1.0, a α1 of 1.0, a τ1 of 3.98 ns and a τf of 3.98 ns. The compound further yielded a τα in data set [4] (in Biofinity contact lens) of 3.98 ns. In data set [4] (in EtOH), this compound displayed a f1 of 1.0, a α1 of 1.0, a τ1 of 3.28 ns and a τf of 3.28 ns. This compound also gave a τα in data set [4] (in EtOH) of 3.28 ns. In data set [4] (in MyDay contact lens, 2 hr), this compound had a f1 of 0.82, a f2 of 0.18, a α1 of 0.94 and a α2 of 0.07. In data set [4] (in MyDay contact lens, 2 hr), this compound showed a τ1 of 3.81 ns, a τ2 of 12.15 ns, a τf of 5.34 ns and a τα of 4.36 ns. In data set [4] (in MyDay contact lens, 1 day), the f1 stood at 0.67, the f2 was 0.33, the α1 is given as 0.87 and the α2 is reported as 0.13. In data set [4] (in MyDay contact lens, 1 day), the τ1 is 4.48 ns, the τ2 is recorded as 14.41 ns, the τf was 7.76 ns and the τα was 5.80 ns. Moreover, in data set [4] (in Water), the f1 is 0.494, the f2 is 0.51, the α1 turned out to be 0.740 and the α2 is 0.260. In data set [4] (in Water), this compound registered a τ1 of 0.69 ns, a τ2 of 2.02 ns, a τf of 1.36 ns and a τα of 1.04 ns.

For `COc1cc(N(CC(=O)O)CC(=O)O)c2nc(COc3cc(C)ccc3N(CC(=O)O)CC(=O)O)ccc2c1` [Quin-2], in data set [1], the “Lifetime (ns), Ca bound form” value is 11.6 ns; the “Q, Ca bound form” value is listed as 0.14; the “Lifetime (ns), Ca free form” value is on record as 1.35 ns; the “Q, Ca free form” value is given as 0.03.

Regarding `O=c1ccc2nc3ccc(O)cc3oc-2c1` [Resorufin], the “Lifetime (ns) τA” value in data set [2] (A form (value in parentheses)) was 0.45 ns. The “Lifetime (ns) τB” value in data set [2] (B form) is on record as 2.92 ns. In data set [2], the pKA was about 5.7.

As for `COc1cc2cc(-c3ccc(C(=O)O)cc3C(=O)O)oc2cc1N1CCOCCOCCN(c2cc3oc(-c4ccc(C(=O)O)cc4C(=O)O)cc3cc2OC)CCOCC1` [SBF ?], in data set [5] (setting [7]), the “Lifetime (ns), cation-bound form” value is reported as 0.47 ns and the “Q, cation-bound form” value is 0.087. In addition, in data set [5] (free form), the “Lifetime (ns), free form” value is 0.27 ns and the “Q, free form” value is 0.645. Moreover, the Kd in data set [5] (read-out: K (mM), binding constant) is 3.8 mM.

In turn, `CC=C[n+]1cccc2cc(OC)ccc21.[Br-]` [SPQ-C3, 1-propenyl-6-methoxyquinolinium bromide] showed a bimolecular quenching constant in data set [6] (in Water) of 5.4e+09 M⁻¹ s⁻¹. In data set [6] (in solution), the “Stern-Volmer constant K” value stood at 140 M⁻¹ and the “unquenched lifetime (τ0)” value is reported as 26 ns. For the same compound, the “bimolecular quenching constant kq” value in data set [6] (in solution, listed as P-MQB) amounted to 5.4e+09 M⁻¹ s⁻¹.

Consider `CCN(CC)Cc1ccnc(-c2cc(CN(CC)CC)ccn2)c1.[Ru+2].c1ccc(-c2ccccn2)nc1.c1ccc(-c2ccccn2)nc1` [[Ru(deabpy)(bpy)2]^2+], for which the “Lifetime (ns) τA” value in data set [2] (A form (value in parentheses)) is 235 ns. For the same compound, the “Lifetime (ns) τB” value in data set [2] (B form) was 380 ns. For the same compound, in data set [2], the pKA was 7.5.
